Assay results from PubChem BioAssay (NCI).
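Values below derive from 48-hour exposures of cells grown in 96-well plates, with endpoints linearly interpolated between the two concentrations bracketing the appropriate inhibition level. TGI: total growth inhibition.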

Legend:
Assay in all cases: NCI anticancer screen, dose series, 48 h
[1] = system: HOP-92 NSCLC
[2] = system: SNB-19 CNS
[3] = system: SN12C renal
[4] = system: IGROV1 ovarian
[5] = system: 786-0 renal
[6] = system: SF-539 CNS
[7] = system: NCI-H226 lung
[8] = system: BT-549 breast
[9] = system: COLO 205 colon
[10] = system: SK-MEL-28 melanoma
[11] = system: SR leukemia
[12] = system: MDA-MB-231 breast

| Compound | TGI [1] | TGI [2] | TGI [3] | TGI [4] | TGI [5] | TGI [6] | TGI [7] | TGI [8] | TGI [9] | TGI [10] | TGI [11] | TGI [12] |
| --- | --- | --- | --- | --- | --- | --- | --- | --- | --- | --- | --- | --- |
| COC1(C)CC2N(C(=O)c3ccccc3)N=C(c3ccccc3)CC2(C)O1 (configuration not stated) | > 100 µM | > 100 µM | > 100 µM | > 100 µM | > 100 µM | > 100 µM | > 100 µM |  |  |  |  |  |
| Cc1cn(C2CC(N)C(CN)O2)c(=O)[nH]c1=O (configuration not stated) | > 100 µM | > 100 µM | > 100 µM | > 100 µM | > 100 µM | > 100 µM | > 100 µM | > 100 µM | > 100 µM | > 100 µM | > 100 µM |  |
| COC(=O)C(C#N)=C1c2ccccc2Oc2ccccc21 | 87.6 µM | > 100 µM | > 100 µM | > 100 µM | > 100 µM | > 100 µM | > 100 µM |  | > 100 µM | > 100 µM |  |  |
| CC1C(c2cc(C(C)(C)C)c(O)c(C(C)(C)C)c2)c2cc3c(cc2OC1N1CCOCC1)OCO3 (configuration not stated) |  | 40.5 µM | > 100 µM | > 100 µM | 27.1 µM | 43.7 µM |  |  | > 100 µM | 40.5 µM | > 100 µM |  |
| O=C1NC(c2ccc(O)cc2)C2CCC1C2 (configuration not stated) | > 100 µM | > 100 µM | > 100 µM | > 100 µM | > 100 µM |  | > 100 µM |  | > 100 µM | > 100 µM | > 100 µM |  |
| CC(=O)NC1C(OCc2ccccc2)OC(CO)C(O)C1OCC(=O)N[C@@H](C)C(=O)N[C@H](CCC(=O)NCCNCCNc1c2ccccc2nc2cccc([N+](=O)[O-])c12)C(N)=O (some centres not stated) | 66.5 µM | > 100 µM | > 100 µM | 32.7 µM | 99.4 µM | > 100 µM |  |  | > 100 µM | > 100 µM | > 100 µM | > 100 µM |
| Cc1ccccc1C(C#N)C(=O)C(=O)Nc1nc([N+](=O)[O-])cs1 (configuration not stated) |  | > 100 µM | > 100 µM | > 100 µM | > 100 µM | > 100 µM | > 100 µM |  |  | > 100 µM |  |  |
| CCOC(=O)c1c(NC(=O)c2ccccc2)sc2c1CCCC2 |  | > 100 µM | > 100 µM | > 100 µM | > 100 µM | > 100 µM | > 100 µM | > 100 µM | > 100 µM | > 100 µM |  | > 100 µM |
| O=C1CCCN(c2ccccc2)N1 |  | > 100 µM | > 100 µM | > 100 µM | > 100 µM | > 100 µM | > 100 µM |  |  | > 100 µM | > 100 µM |  |
| [N-]=[N+]=Nc1c(Cl)c(=O)n(-c2ccccc2)c2ccccc12 | 38.3 µM | > 100 µM | 51.2 µM | 30.5 µM | 38.6 µM | 42.3 µM |  | 39.2 µM | 47.1 µM | 32.1 µM | > 100 µM |  |
| CC(C)(C)OC(=O)NC(C)(C)C(=O)NCCC(=O)O |  | > 100 µM | > 100 µM | > 100 µM | > 100 µM | > 100 µM | > 100 µM | > 100 µM | > 100 µM | > 100 µM |  | > 100 µM |
| COc1cc2c(cc1OCCCCCOc1cc3c(cc1OC)C(=O)N1CCC[C@H]1C(=O)N3)N=C[C@@H]1CCCN1C2=O | 0.0973 µM | > 100 µM |  |  | 4.71 µM | 0.0562 µM | 0.75 µM | 6.67 µM | 0.0509 µM | 0.332 µM |  |  |
| Cc1ccccc1C1OC1C(=O)c1ccccc1N (configuration not stated) | > 100 µM | > 100 µM | > 100 µM |  | > 100 µM | > 100 µM | > 100 µM |  | > 100 µM | > 100 µM | > 100 µM | > 100 µM |
| COC(=O)c1cc(CC(C)C)c2c(c1)[nH]c1ccccc12 | > 100 µM | > 100 µM | > 100 µM | > 100 µM | > 100 µM | > 100 µM | > 100 µM |  | > 100 µM | > 100 µM |  |  |
| O=C1CC(O)c2c1csc2Br (configuration not stated) |  | > 100 µM | 87.9 µM | 35.9 µM | 51.1 µM |  |  | 52.9 µM | 59.9 µM | 45.1 µM |  | 55 µM |
| CCOC(=O)C1=C(C)N(c2ccccc2)C2=C(C(=O)N(c3ccccc3)C2c2ccccc2)C1c1ccccc1 (configuration not stated) | > 100 µM | > 100 µM | > 100 µM | > 100 µM | > 100 µM | > 100 µM | > 100 µM |  | > 100 µM | > 100 µM | > 100 µM |  |
| CO[C@@H](C(=O)OC1C=CC2(CC1)C(=O)N(C)c1ccccc12)c1ccccc1 (some centres not stated) | > 100 µM | > 100 µM | > 100 µM | > 100 µM | > 100 µM |  |  |  | > 100 µM | > 100 µM | > 100 µM | > 100 µM |

| Compound | TGI [1] | TGI [2] | TGI [3] | TGI [4] | TGI [5] | TGI [6] | TGI [7] | TGI [8] | TGI [9] | TGI [10] | TGI [11] | TGI [12] |
| --- | --- | --- | --- | --- | --- | --- | --- | --- | --- | --- | --- | --- |
| O=C1CC2C=CC(O)C(C1)C2 (configuration not stated) |  | > 100 µM | > 100 µM | > 100 µM | > 100 µM | > 100 µM | > 100 µM |  | > 100 µM | > 100 µM | > 100 µM | > 100 µM |
| CCOc1ccc(N/C(=C(/C(Cl)=C(/Cl)NCCN)[N+](=O)[O-])n2nnc3ccccc32)cc1 |  | > 100 µM | > 100 µM |  | > 100 µM | 41.9 µM | > 100 µM | > 100 µM | 32.4 µM | > 100 µM |  | > 100 µM |
| O=C(/C=C/c1ccccc1)/C=C/c1ccccc1O | > 100 µM | 61.5 µM | 30.4 µM | 35.7 µM | 32.4 µM | 44.3 µM | 58.1 µM |  | 31.1 µM | 81 µM | 72.7 µM |  |
| COc1cc(COC(=O)N[C@H](C(=O)O)C(C)(C)C)c([N+](=O)[O-])cc1OC | > 100 µM | > 100 µM | > 100 µM | > 100 µM | > 100 µM | > 100 µM | > 100 µM | > 100 µM | > 100 µM | > 100 µM | > 100 µM |  |
| C[N+](C)(C)CC(=O)N/N=c1\cc(C(=O)Nc2ccc(N=O)cc2C#N)oc2cc(O)ccc12 | > 100 µM | > 100 µM | > 100 µM | > 100 µM | > 100 µM | > 100 µM | > 100 µM |  | > 100 µM | > 100 µM | > 100 µM |  |
| O=C1O[C@@H](c2ccccc2)C[C@@H]1CN1CCOCC1 | > 100 µM |  | > 100 µM | > 100 µM | > 100 µM | > 100 µM | > 100 µM |  | > 100 µM | > 100 µM |  |  |
| O=C1CC2(C[C@@H]3CCCCCCCCC[C@@H](C3)C2)N1 (some centres not stated) | 23 µM | 34.6 µM | 30.8 µM | 27.9 µM | 30.4 µM | 30.4 µM | 30.8 µM |  | 30.7 µM | 31.5 µM | 30.7 µM |  |
| N#C/C(=C\NC(=S)Nc1ccc(S(=O)(=O)Nc2ccccn2)cc1)C(N)=O | > 100 µM | > 100 µM | > 100 µM | > 100 µM | > 100 µM | > 100 µM | > 100 µM |  | > 100 µM | > 100 µM | > 100 µM | > 100 µM |
| N#CCCN(c1ccc(C=Nc2cccc([N+](=O)[O-])c2)cc1)S(=O)(=O)c1ccccc1 | > 100 µM | > 100 µM | > 100 µM | > 100 µM | > 100 µM | > 100 µM | > 100 µM |  | > 100 µM | > 100 µM | > 100 µM |  |
| COC1O[C@H]2CCN(C(=O)OCc3ccccc3)[C@H]2[C@H]1OCc1ccccc1 (some centres not stated) | > 86 µM | > 100 µM | > 100 µM | > 100 µM | > 100 µM | > 100 µM | > 100 µM |  | > 100 µM | > 100 µM | 99.7 µM |  |
| c1cc2nnc1SCCSCCSc1ccc(nn1)SCCSCCS2 | > 100 µM | > 100 µM | > 100 µM | > 100 µM | > 100 µM | 96.8 µM | > 100 µM |  | > 100 µM | > 100 µM | > 100 µM | > 100 µM |
| COc1ccc(C2C(Cl)C(=O)N2NC(=O)c2ccc(NC(C)=O)cc2)cc1 (configuration not stated) | > 100 µM | > 100 µM | > 100 µM | > 100 µM | > 100 µM | > 100 µM | > 100 µM |  | > 100 µM | > 100 µM |  |  |
| Cc1c(Cl)cccc1NC(=O)C(=O)C1C(=O)CC(C)(C)CC1=O | > 100 µM | > 100 µM | > 100 µM | > 100 µM | > 100 µM | > 100 µM | > 100 µM |  | > 100 µM | > 100 µM | > 100 µM |  |
| Nc1nc2ncc(SCc3ccc(C(=O)NC(CCC(=O)O)C(=O)O)cc3)cc2c(=O)[nH]1 (configuration not stated) | > 100 µM | > 100 µM | > 100 µM | > 100 µM | > 100 µM | > 100 µM | > 100 µM | > 100 µM | > 100 µM | > 100 µM | > 100 µM |  |
| CCOC(=O)C(OCC1CC=CCC1)Sc1ccccc1 (configuration not stated) | > 100 µM | > 100 µM | > 100 µM | > 100 µM | > 100 µM | > 100 µM |  |  | > 100 µM | > 100 µM | > 100 µM |  |
| COc1ccc2nc(-c3ccc(OCc4ccccc4)cc3)ccc2c1 | > 100 µM | > 100 µM | > 100 µM | > 100 µM | > 100 µM | > 100 µM | > 100 µM |  | > 100 µM | > 100 µM | > 100 µM |  |
